The values below come from publication PMC7230232, “Secondary Metabolites from the Culture of the Marine-derived Fungus Paradendryphiella salina PC 362H and Evaluation of the Anticancer Activity of Its Metabolite Hyalodendrin” (Marine Drugs, 2020).

The subject of one assay is MCF7 cells. The assay can be described thus: MTT cell viability assay, MCF7. It is filed as cell-based, human. The conditions noted are these: Homo sapiens. As for the experimental part: (§1) Cellular viability was determined by the MTT (methylthiazolyldiphenyl-tetrazolium bromide) assay. Briefly, cells were exposed to the indicated concentrations of crude extracts or compounds 1–4 for five doubling times and then incubated for 3 h at 37 °C with MTT. Formazan crystals were then dissolved in DMSO and optical density measured at 570 nm in a microplate reader. The half-maximal inhibitory concentration (IC50) was determined. Values given for crude extracts are averages of at least two experiments done in duplicate. IC50 values calculated for the four isolated compounds and the commercially available 4-hydroxy-tamoxifen (Sigma-Aldrich) are averages of at least three experiments done in duplicate.
Background: Tetrazolium dyes change colour on reduction, which living cells bring about.

Assay [1] deals with MCF7-Sh-WISP2 cells. The assay can be described thus: MTT cell viability assay, MCF7-Sh-WISP2. The settings on record: for IC50: Homo sapiens. It counts as cell-based, human. As for the experimental part:
as §1

For another assay, the system named is 3T3-F442A cells. The assay can be described thus: MTT cell viability assay, 3T3-F442A pre-adipocytes. The settings on record: Mus musculus. It counts as cell-based, murine. As for the experimental part: as §1
In another assay the test system is MDA-MB-231. The assay can be described thus: MTT cell viability assay, MDA-MB-231. It counts as cell-based. The settings on record: Homo sapiens, breast, mesenchymal, invasive. As for the experimental part: as §1
In a further assay the test system is HT29 5FU. Put plainly: MTT cell viability assay, HT29 5FU. The conditions noted are these: Homo sapiens, HT-29; colon; 5-fluorouracil resistant. It counts as cell-based. As for the experimental part: as §1
Another assay deals with HCT116 5FU. Put plainly: MTT cell viability assay, HCT116 5FU. It counts as cell-based. The settings on record: Homo sapiens, HCT-116; colon; 5-fluorouracil resistant. As for the experimental part: as §1
Assay [2] deals with T1, NADPH-dependent thioredoxin reductase (Trr1) (Saccharomyces cerevisiae, UniProt P29509).
T1 construct: made in house
Put plainly: In vitro reduction by NADPH thioredoxin reductase alone (NADPH consumption). The settings on record: yeast NTR (Trr1) alone, versus ACN control. It counts as biochemical. As for the experimental part: Thioredoxin 1 (Trx1) and NADPH-dependent thioredoxin reductase (Trr1) from Saccharomyces cerevisiae were cloned and produced as described previously. Thioredoxin activity was measured spectrophotometrically (Uvikon XS; Secomam) in 1 mL cuvette by following NADPH consumption at 340 nm over 2 min. The reaction was performed in 100 µM NADPH, 246 nM of Trr1 in 30 mM Tris-HCl buffer (pH 7.9) and in the presence or not of 65 nM of Trx1. The reaction was initiated by adding 10 µL of 50 mM of 3 in acetonitrile or 10 µL of acetonitrile (ACN, Control experiment). For each condition, NADPH consumption experiments were performed in triplicate and results were represented as the mean ± SD. The significance of the results was evaluated by Student’s t-test.

In assay [3] the target is cytoplasmic GAPDH from Arabidopsis thaliana (AtGAPDH) (Arabidopsis thaliana, UniProt P25858). The assay can be described thus: Covalent adduct formation with GAPDH by MALDI-TOF mass spectrometry. It is filed as binding. The settings on record: data not shown. The source says: Compound 3 is a member of the epidithiodioxopiperazines, a class of natural products characterized by a sulfur-bridged dioxopiperazine that is believed to play an important role in their biological activity. […] The role of the sulfur-bridged dioxopiperazine in the activity of epidithiodioxopiperazines has been attributed to two main mechanisms: (1) mixed disulfide formation with proteins and (2) production of reactive oxygen species (ROS) upon the formation of the disulfide bond after reduction by a cellular reductant. […] To test whether 3 might act through these two processes, we first assessed its propensity to form in vitro covalent adducts with the glycolytic glyceraldehyde-3-phosphate dehydrogenase enzyme (GAPDH). GAPDH is a widely used model protein to study molecular mechanism of thiol-based post-translational modifications as its catalytic cysteine is prone to multiple reversible and irreversible oxidation states. […] Trxs are small ubiquitous thiol/disulfide oxidoreductases with multiple recognized roles in cellular processes and human diseases including cancers. However, since mammal NTR is a selenoprotein that is not easily produced recombinantly, we used here the thioredoxin system from the eukaryotic yeast Saccharomyces cerevisiae (Figure 6). […]

For assay [4], the system named is MCF7-Sh-WISP2 cells. The assay can be described thus: Human cell stress array and immunoblotting. It is filed as cell-based. As for the experimental part:
MCF7-Sh-WISP2 cells were treated for 48 h with 5.7 µM of 3 (corresponding to 3.8 × 10^−5 nmol of drug per cell), harvested and lysed for 30 min on ice with 0.4 mL of cell lysis buffer containing a cocktail of protease inhibitors. The lysates were centrifuged at 14,000 g for 5 min at 4 °C. Human cell stress proteins were detected using the Proteome Profiler human cell stress array kit (# ARY018, R&D systems) according to the manufacturer’s instructions. The chemiluminescent images of the slide were captured with the Chemidoc system (Biorad).
MCF7-Sh-WISP2 cells were incubated for 72 h at 37 °C with 2.4 µM of 3 (corresponding to 3.8 × 10^−5 nmol of drug per cell). Cells were then washed twice with Phosphate-Buffer Saline (PBS) 1X and lysed for 30 min in RIPA buffer (150 mM NaCl, 1.0% IGEPAL® CA-630, 0.5% sodium deoxycholate, 0.1% SDS, 50 mM Tris, pH 8.0). Proteins (20 µg) were resolved on sodium dodecyl sulfate polyacrylamide gel (SDS/PAGE) (12%) and blotted onto nitrocellulose membranes (Bio-Rad). […] Antigens were detected using an enhanced chemiluminescence kit (Biorad) using the Chemidoc system (Biorad). Protein quantitation was calculated using Image Lab software developed by Bio-Rad.
Background: Immunoblotting shows a protein as a band on a membrane.

Assay [5] has as its system MCF7-Sh-WISP2 cells. The assay can be described thus: γ-H2AX foci immunofluorescence. It counts as cell-based, human. The conditions noted are these: 1 µM.

Where “and” joins values, the source holds several entries; their conditions need not be identical. Equal entries are not always repeated. Where two headings read alike, the source gives them in different places.

T1 sequence (P29509 whole entry): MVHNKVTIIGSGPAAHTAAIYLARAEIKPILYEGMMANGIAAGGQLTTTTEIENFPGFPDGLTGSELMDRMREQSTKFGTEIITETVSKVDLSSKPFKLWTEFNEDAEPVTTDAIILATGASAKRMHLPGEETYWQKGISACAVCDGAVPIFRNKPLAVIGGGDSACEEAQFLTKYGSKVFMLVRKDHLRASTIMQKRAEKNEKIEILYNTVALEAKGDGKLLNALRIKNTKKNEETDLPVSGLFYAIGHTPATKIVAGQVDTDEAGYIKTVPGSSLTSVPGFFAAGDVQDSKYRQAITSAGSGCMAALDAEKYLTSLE
cytoplasmic GAPDH from Arabidopsis thaliana (AtGAPDH), sequence (P25858 whole entry): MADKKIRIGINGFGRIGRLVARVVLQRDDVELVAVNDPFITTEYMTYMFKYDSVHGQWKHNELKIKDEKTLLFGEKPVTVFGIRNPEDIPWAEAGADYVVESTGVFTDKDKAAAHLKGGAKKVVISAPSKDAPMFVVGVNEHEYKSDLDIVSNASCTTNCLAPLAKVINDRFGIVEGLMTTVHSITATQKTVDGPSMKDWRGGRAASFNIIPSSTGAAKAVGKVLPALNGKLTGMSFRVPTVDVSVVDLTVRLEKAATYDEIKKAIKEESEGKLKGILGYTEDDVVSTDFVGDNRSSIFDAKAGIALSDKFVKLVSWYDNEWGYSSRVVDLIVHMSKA

For orientation: IC50 means the concentration that inhibits the measured activity by half. Regarding `CN1C(=O)[C@@]2(Cc3ccccc3)SS[C@]1(CO)C(=O)N2C` [Compound 3, (3R, 6R) Hyalodendrin], the IC50 in the assay with MCF7 cells (MCF7, read-out: IC50 MCF7, breast, epithelial) was 216 ± 6 nM; in the assay with MCF7 cells (MCF7, read-out: IC50 MCF7, pure compounds, MTT), 0.07 µg/mL and 220 nM; in the assay with MCF7-Sh-WISP2 cells [1] (read-out: IC50 MC7-Sh-WISP2) it was 142 ± 3 nM; in the assay on MCF7-Sh-WISP2 cells [1] (read-out: IC50 MCF7-Sh-WISP2) it was 0.046 µg/mL and 140 nM; with 3T3-F442A cells (read-out: IC50 3T3-F442A) it was 0.099 µg/mL and 300 nM; in the assay with 3T3-F442A cells (read-out: IC50 3T3F442A), 305 ± 4.2 nM. Besides, the figures for the IC50 with MDA-MB-231, in the assay with HT29 5FU and in the assay on HCT116 5FU were 132 ± 13.4 nM, 147 ± 10.2 nM and 72 ± 10.9 nM, respectively. Also, the “IC50 for MCF7-Sh-WISP2 expressed as amount of 3 per cell” value with MCF7-Sh-WISP2 cells [1] (corresponds to IC50 of 140 nM in the viability assay) is reported as 3.8 × 10^−5 nmol of 3 per cell. Moreover, the NADPH consumption increase result in assay [2] was “ca. three”. Besides, in assay [3], the “mixed disulfide formation with catalytic cysteine of AtGAPDH (mass shift)” value is reported as “not able to form a mixed disulfide”. For the same compound, in the assay on MCF7-Sh-WISP2 cells [4] (5.7 µM for 48 h (array), 2.4 µM for 72 h (Western blot)), the “phosphorylation of p53 on serine 46” value was “decreased phosphorylation”. Besides, the BAX expression entry in the assay with MCF7-Sh-WISP2 cells [4] (Western blot, 2.4 µM for 72 h) is on record as “decreased expression”. In the assay on MCF7-Sh-WISP2 cells [4] (array, 5.7 µM for 48 h), the “expression levels of HSP60 and HSP70 proteins” value was “marked decrease”. Besides, the “p21 protein expression levels” value in the assay with MCF7-Sh-WISP2 cells [4] (array, 5.7 µM for 48 h) is “no increase”. Moreover, the γ-H2AX signal entry is on record as “punctuated labeling in their nucleus” in the assay on MCF7-Sh-WISP2 cells [5] (24 and 48 h); “no γ-H2AX signal could be detected” in the assay with MCF7-Sh-WISP2 cells [5] (3 h).
